Reference: ChEMBL document CHEMBL3817824, “Synthesis and biological evaluation of new [1,2,4]triazolo[4,3-a]pyridine derivatives as potential c-Met inhibitors” (Bioorg Med Chem, 2016)

Legend:
[1] = target: Hepatocyte growth factor receptor (Homo sapiens, UniProt P08581); experiment: Inhibition of c-Met (unknown origin) incubated for 1 hr by spectrophotometric analysis
[2] = Cytotoxicity against human MHCC97L cells assessed as reduction in cell survival incubated for 3 days by cell titre-glo assay; format: functional, cell-based; conditions: 72 h
[3] = Cytotoxicity against human MKN45 cells assessed as reduction in cell survival incubated for 3 days by cell titre-glo assay; format: functional, cell-based; conditions: MKN-45, 72 h
[4] = tested on: NCI-H1993; experiment: Cytotoxicity against human NCI-H1993 cells assessed as reduction in cell survival incubated for 3 days by cell titre-glo assay; format: functional, cell-based; conditions: NCI-H1993, 72 h
[5] = Cytotoxicity against human HuH7 cells assessed as reduction in cell survival incubated for 3 days by cell titre-glo assay; format: functional, cell-based; conditions: Huh-7, 72 h
[6] = tested on: NCI-N87; experiment: Cytotoxicity against human NCI-N87 cells assessed as reduction in cell survival incubated for 3 days by cell titre-glo assay; format: functional, cell-based; conditions: NCI-N87, 72 h
[7] = tested on: A549; experiment: Cytotoxicity against human A549 cells assessed as reduction in cell survival incubated for 3 days by cell titre-glo assay; format: functional, cell-based; conditions: A549, 72 h
[8] = target: Tyrosine-protein kinase ABL1 (Homo sapiens, UniProt P00519); experiment: Inhibition of ABL (unknown origin) incubated for 1 hr by spectrophotometric analysis
Tyrosine-protein kinase ABL1, sequence (P00519 whole entry): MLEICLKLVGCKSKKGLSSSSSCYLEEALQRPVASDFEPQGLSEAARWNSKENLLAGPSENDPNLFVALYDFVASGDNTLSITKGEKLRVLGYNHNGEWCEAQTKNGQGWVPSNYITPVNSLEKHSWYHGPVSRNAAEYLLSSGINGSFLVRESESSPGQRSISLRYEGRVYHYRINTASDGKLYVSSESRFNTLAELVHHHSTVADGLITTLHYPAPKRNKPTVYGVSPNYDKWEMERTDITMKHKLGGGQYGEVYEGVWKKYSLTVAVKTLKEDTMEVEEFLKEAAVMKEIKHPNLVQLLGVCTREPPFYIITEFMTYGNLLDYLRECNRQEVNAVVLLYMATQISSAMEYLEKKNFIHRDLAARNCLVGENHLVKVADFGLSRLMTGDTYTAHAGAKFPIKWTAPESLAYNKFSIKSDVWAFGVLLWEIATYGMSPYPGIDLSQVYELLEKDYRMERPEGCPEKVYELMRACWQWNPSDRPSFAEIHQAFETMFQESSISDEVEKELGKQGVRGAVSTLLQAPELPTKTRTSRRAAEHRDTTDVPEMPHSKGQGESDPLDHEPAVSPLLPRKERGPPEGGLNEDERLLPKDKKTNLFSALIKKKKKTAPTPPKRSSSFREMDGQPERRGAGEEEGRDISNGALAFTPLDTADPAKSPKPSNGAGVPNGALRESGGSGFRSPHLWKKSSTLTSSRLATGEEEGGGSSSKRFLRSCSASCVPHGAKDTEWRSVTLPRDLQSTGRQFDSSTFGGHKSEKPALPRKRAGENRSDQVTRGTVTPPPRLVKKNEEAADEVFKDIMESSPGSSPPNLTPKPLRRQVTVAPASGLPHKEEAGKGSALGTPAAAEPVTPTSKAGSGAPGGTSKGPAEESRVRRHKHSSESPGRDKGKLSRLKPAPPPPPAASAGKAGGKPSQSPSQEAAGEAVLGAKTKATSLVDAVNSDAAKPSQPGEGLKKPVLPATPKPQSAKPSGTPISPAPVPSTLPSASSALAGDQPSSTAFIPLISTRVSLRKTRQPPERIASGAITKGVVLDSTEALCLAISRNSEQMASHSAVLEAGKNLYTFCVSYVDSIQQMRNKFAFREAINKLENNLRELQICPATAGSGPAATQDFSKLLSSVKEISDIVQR

[9] = target: ALK tyrosine kinase receptor (Homo sapiens, UniProt Q9UM73); experiment: Inhibition of ALK (unknown origin) incubated for 1 hr by spectrophotometric analysis
[10] = target: Tyrosine-protein kinase receptor UFO (Homo sapiens, UniProt P30530); experiment: Inhibition of AXL (unknown origin) incubated for 1 hr by spectrophotometric analysis
[11] = target: Ephrin type-A receptor 2 (Homo sapiens, UniProt P29317); experiment: Inhibition of ECK (unknown origin) incubated for 1 hr by spectrophotometric analysis
[12] = target: Epidermal growth factor receptor (Homo sapiens, UniProt P00533); experiment: Inhibition of EGFR (unknown origin) incubated for 1 hr by spectrophotometric analysis
[13] = target: Epidermal growth factor receptor (Homo sapiens, UniProt P00533, T790M); experiment: Inhibition of EGFR T790M mutant (unknown origin) incubated for 1 hr by spectrophotometric analysis; format: protein assay
[14] = target: Ephrin type-A receptor 1 (Homo sapiens, UniProt P21709); experiment: Inhibition of EPHA1 (unknown origin) incubated for 1 hr by spectrophotometric analysis
[15] = target: Ephrin type-B receptor 1 (Homo sapiens, UniProt P54762); experiment: Inhibition of EPHB1 (unknown origin) incubated for 1 hr by spectrophotometric analysis
[16] = target: Ephrin type-B receptor 2 (Homo sapiens, UniProt P29323); experiment: Inhibition of EPHB2 (unknown origin) incubated for 1 hr by spectrophotometric analysis
[17] = target: Mitogen-activated protein kinase 1 (Homo sapiens, UniProt P28482); experiment: Inhibition of ERK2 (unknown origin) incubated for 1 hr by spectrophotometric analysis
[18] = target: Tyrosine-protein kinase Fer (Homo sapiens, UniProt P16591); experiment: Inhibition of FER (unknown origin) incubated for 1 hr by spectrophotometric analysis
[19] = target: Receptor-type tyrosine-protein kinase FLT3 (Homo sapiens, UniProt P36888); experiment: Inhibition of FLT3 (unknown origin) incubated for 1 hr by spectrophotometric analysis
[20] = target: Vascular endothelial growth factor receptor 3 (Homo sapiens, UniProt P35916); experiment: Inhibition of FLT4 (unknown origin) incubated for 1 hr by spectrophotometric analysis
[21] = target: Fibroblast growth factor receptor 2 (Homo sapiens, UniProt P21802); experiment: Inhibition of FGFR2 (unknown origin) incubated for 1 hr by spectrophotometric analysis
[22] = target: Fibroblast growth factor receptor 3 (Homo sapiens, UniProt P22607); experiment: Inhibition of FGFR3 (unknown origin) incubated for 1 hr by spectrophotometric analysis
[23] = target: Receptor tyrosine-protein kinase erbB-2 (Homo sapiens, UniProt P04626); experiment: Inhibition of HER2 (unknown origin) incubated for 1 hr by spectrophotometric analysis
[24] = target: Insulin receptor (Homo sapiens, UniProt P06213); experiment: Inhibition of INSR (unknown origin) incubated for 1 hr by spectrophotometric analysis
Insulin receptor, sequence (P06213 28-758 limits assumed): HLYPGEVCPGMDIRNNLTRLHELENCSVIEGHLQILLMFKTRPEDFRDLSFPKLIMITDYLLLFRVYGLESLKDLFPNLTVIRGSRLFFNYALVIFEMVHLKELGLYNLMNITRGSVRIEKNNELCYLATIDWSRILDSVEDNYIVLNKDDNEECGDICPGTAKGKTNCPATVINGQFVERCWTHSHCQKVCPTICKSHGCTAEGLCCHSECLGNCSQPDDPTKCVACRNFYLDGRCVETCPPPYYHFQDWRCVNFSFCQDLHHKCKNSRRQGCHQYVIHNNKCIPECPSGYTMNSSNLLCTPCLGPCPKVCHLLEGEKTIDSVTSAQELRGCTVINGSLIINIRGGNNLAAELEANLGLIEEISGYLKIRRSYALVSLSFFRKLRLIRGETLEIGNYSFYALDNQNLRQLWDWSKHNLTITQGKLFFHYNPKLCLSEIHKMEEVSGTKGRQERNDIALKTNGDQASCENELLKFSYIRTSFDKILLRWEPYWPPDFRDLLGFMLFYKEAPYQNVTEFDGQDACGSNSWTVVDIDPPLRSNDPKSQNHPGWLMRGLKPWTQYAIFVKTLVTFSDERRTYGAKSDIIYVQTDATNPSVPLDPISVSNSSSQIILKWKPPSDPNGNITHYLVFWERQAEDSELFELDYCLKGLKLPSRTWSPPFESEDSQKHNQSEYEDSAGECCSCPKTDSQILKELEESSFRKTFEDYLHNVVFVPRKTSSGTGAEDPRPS
Insulin receptor, sequence (P06213 763-1382 limits assumed): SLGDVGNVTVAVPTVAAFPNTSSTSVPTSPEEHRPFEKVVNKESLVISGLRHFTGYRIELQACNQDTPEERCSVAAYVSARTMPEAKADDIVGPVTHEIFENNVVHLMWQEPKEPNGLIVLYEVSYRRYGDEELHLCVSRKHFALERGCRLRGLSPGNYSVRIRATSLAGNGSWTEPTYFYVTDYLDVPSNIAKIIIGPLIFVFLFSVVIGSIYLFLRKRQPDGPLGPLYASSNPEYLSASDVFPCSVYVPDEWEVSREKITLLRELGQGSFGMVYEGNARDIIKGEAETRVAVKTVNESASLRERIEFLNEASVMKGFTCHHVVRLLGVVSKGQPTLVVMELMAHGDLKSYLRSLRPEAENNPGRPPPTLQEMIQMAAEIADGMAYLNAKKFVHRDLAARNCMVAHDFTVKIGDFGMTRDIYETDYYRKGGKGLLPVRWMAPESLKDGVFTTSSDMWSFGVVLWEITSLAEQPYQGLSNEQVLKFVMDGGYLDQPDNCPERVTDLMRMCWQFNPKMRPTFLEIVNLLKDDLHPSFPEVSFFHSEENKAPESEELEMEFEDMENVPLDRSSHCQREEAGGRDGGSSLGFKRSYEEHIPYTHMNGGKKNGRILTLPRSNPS

[25] = target: Tyrosine-protein kinase JAK1 (Homo sapiens, UniProt P23458); experiment: Inhibition of JAK1 (unknown origin) incubated for 1 hr by spectrophotometric analysis
[26] = target: Tyrosine-protein kinase JAK3 (Homo sapiens, UniProt P52333); experiment: Inhibition of JAK3 (unknown origin) incubated for 1 hr by spectrophotometric analysis
[27] = target: Vascular endothelial growth factor receptor 2 (Homo sapiens, UniProt P35968); experiment: Inhibition of KDR (unknown origin) incubated for 1 hr by spectrophotometric analysis
[28] = target: Tyrosine-protein kinase Lck (Homo sapiens, UniProt P06239); experiment: Inhibition of LCK (unknown origin) incubated for 1 hr by spectrophotometric analysis
Tyrosine-protein kinase Lck, sequence (P06239 whole entry): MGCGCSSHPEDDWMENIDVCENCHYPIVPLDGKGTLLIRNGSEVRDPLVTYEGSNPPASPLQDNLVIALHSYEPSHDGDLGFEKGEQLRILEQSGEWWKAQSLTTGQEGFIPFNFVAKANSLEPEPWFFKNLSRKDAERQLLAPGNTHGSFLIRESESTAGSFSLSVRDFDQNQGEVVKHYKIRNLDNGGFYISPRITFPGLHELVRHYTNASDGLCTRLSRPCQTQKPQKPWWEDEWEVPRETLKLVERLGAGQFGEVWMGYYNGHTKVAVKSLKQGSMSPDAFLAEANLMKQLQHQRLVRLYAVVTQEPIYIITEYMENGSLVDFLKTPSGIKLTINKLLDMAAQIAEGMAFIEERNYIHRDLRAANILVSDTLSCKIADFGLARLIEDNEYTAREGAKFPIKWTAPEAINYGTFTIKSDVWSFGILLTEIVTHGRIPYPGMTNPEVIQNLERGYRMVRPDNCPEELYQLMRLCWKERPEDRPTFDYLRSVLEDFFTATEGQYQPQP

[29] = target: Tyrosine-protein kinase Lyn (Homo sapiens, UniProt P07948); experiment: Inhibition of LYNA (unknown origin) incubated for 1 hr by spectrophotometric analysis
Tyrosine-protein kinase Lyn, sequence (P07948 whole entry): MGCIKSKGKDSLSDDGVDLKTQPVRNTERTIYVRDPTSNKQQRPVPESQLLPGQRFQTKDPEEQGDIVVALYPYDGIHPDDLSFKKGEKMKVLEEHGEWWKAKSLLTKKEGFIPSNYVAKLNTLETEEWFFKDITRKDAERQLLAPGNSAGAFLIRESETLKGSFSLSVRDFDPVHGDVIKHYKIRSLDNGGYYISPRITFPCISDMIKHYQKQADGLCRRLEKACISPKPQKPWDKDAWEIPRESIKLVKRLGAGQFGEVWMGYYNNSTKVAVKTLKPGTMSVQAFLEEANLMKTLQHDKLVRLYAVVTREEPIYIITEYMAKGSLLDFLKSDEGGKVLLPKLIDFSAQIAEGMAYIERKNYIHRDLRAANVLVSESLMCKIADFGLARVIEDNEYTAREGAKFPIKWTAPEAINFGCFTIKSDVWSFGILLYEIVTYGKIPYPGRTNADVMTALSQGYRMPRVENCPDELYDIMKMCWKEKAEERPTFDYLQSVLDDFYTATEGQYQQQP

[30] = target: Muscle, skeletal receptor tyrosine-protein kinase (Homo sapiens, UniProt O15146); experiment: Inhibition of MUSK (unknown origin) incubated for 1 hr by spectrophotometric analysis
Muscle, skeletal receptor tyrosine-protein kinase, sequence (O15146 whole entry): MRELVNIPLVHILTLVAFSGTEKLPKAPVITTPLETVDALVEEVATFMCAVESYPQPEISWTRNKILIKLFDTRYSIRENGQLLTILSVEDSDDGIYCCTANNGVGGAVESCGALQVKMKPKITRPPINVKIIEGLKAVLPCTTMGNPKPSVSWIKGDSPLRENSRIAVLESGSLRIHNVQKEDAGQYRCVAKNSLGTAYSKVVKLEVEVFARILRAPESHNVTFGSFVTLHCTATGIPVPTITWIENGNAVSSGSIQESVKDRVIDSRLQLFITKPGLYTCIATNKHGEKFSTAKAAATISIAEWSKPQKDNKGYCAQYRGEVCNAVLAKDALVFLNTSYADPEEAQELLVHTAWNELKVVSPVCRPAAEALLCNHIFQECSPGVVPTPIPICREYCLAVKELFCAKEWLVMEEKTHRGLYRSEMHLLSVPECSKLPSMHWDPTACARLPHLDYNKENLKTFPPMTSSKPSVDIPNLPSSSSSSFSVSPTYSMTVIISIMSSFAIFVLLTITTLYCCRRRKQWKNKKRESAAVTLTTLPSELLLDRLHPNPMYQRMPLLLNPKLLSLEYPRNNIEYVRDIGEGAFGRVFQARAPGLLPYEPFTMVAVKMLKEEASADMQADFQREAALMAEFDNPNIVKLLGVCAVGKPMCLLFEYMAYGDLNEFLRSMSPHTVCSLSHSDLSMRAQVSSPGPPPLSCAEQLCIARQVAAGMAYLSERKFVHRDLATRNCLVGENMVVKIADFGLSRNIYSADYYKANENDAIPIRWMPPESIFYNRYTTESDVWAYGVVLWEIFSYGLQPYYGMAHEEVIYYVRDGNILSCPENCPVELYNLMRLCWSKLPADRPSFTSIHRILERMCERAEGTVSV

[31] = target: Mitogen-activated protein kinase 14 (Homo sapiens, UniProt Q16539); experiment: Inhibition of p38alpha (unknown origin) incubated for 1 hr by spectrophotometric analysis
Mitogen-activated protein kinase 14, sequence (Q16539 whole entry): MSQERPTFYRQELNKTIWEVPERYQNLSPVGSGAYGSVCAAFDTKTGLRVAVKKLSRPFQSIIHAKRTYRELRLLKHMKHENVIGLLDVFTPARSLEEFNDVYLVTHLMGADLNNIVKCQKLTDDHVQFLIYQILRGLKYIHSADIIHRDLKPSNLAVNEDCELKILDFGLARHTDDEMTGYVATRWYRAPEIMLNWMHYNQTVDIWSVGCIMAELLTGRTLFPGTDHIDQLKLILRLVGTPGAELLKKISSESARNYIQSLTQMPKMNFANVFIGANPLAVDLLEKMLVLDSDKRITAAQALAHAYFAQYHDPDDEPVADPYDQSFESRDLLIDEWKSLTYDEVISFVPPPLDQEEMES

[32] = target: Platelet-derived growth factor receptor alpha (Homo sapiens, UniProt P16234); experiment: Inhibition of PDGFRalpha (unknown origin) incubated for 1 hr by spectrophotometric analysis
[33] = target: Platelet-derived growth factor receptor beta (Homo sapiens, UniProt P09619); experiment: Inhibition of PDGFRbeta (unknown origin) incubated for 1 hr by spectrophotometric analysis
[34] = target: Protein kinase C alpha type (Homo sapiens, UniProt P17252); experiment: Inhibition of PKCalpha (unknown origin) incubated for 1 hr by spectrophotometric analysis
[35] = target: Protein kinase C zeta type (Homo sapiens, UniProt Q05513); experiment: Inhibition of PKCzeta (unknown origin) incubated for 1 hr by spectrophotometric analysis
[36] = target: Serine/threonine-protein kinase N2 (Homo sapiens, UniProt Q16513); experiment: Inhibition of PKN2 (unknown origin) incubated for 1 hr by spectrophotometric analysis
[37] = target: Proto-oncogene tyrosine-protein kinase ROS (Homo sapiens, UniProt P08922); experiment: Inhibition of ROS (unknown origin) incubated for 1 hr by spectrophotometric analysis
[38] = target: Angiopoietin-1 receptor (Homo sapiens, UniProt Q02763); experiment: Inhibition of TIE2 (unknown origin) incubated for 1 hr by spectrophotometric analysis
[39] = target: High affinity nerve growth factor receptor (Homo sapiens, UniProt P04629); experiment: Inhibition of TRKA (unknown origin) incubated for 1 hr by spectrophotometric analysis
[40] = target: Non-receptor tyrosine-protein kinase TYK2 (Homo sapiens, UniProt P29597); experiment: Inhibition of TYK2 (unknown origin) incubated for 1 hr by spectrophotometric analysis
[41] = target: Tyrosine-protein kinase Yes (Homo sapiens, UniProt P07947); experiment: Inhibition of YES (unknown origin) incubated for 1 hr by spectrophotometric analysis

CN1C(=O)COc2c1cnc1ccc(Sc3nnc4c(F)cc(-c5cnn(C)c5)cn34)cc21 [DALMELITINIB]
IC50 [1]: 0.0007 µM | IC50 [2]: 0.007 µM | IC50 [3]: 0.006 µM | IC50 [4]: 0.014 µM | IC50 [5]: > 10 µM | IC50 [6]: > 10 µM | IC50 [7]: > 10 µM | IC50 [8]: > 30 µM | IC50 [9]: > 30 µM | IC50 [10]: 8.69 µM | IC50 [11]: > 30 µM | IC50 [12]: > 30 µM | IC50 [13]: > 30 µM | IC50 [14]: > 30 µM | IC50 [15]: > 30 µM | IC50 [16]: > 30 µM | IC50 [17]: > 30 µM | IC50 [18]: > 30 µM | IC50 [19]: > 30 µM | IC50 [20]: > 30 µM | IC50 [21]: > 30 µM | IC50 [22]: > 30 µM | IC50 [23]: > 30 µM | IC50 [24]: > 30 µM | IC50 [25]: > 30 µM | IC50 [26]: > 30 µM | IC50 [27]: > 30 µM | IC50 [28]: > 30 µM | IC50 [29]: > 30 µM | IC50 [30]: > 30 µM | IC50 [31]: > 30 µM | IC50 [32]: > 30 µM | IC50 [33]: > 30 µM | IC50 [34]: > 30 µM | IC50 [35]: > 30 µM | IC50 [36]: > 30 µM | IC50 [37]: 2.83 µM | IC50 [38]: > 30 µM | IC50 [39]: > 30 µM | IC50 [40]: > 30 µM | IC50 [41]: > 30 µM
